Consider 35 compounds from patent US11427558B1, “Indazoles and azaindazoles as LRRK2 inhibitors” (ESCAPE Bio, Inc., priority 2019, dated 2022).

Assay [1] concerns the target Recombinant wild type LRRK2 protein (Homo sapiens (Human), UniProt Q5S007). As to the kind of experiment: LRRK2 kinase activity, LanthaScreen TR-FRET assay (wild type). The assay is classed as biochemical. To be noted: LRRKtide 400 nM, 25 μM ATP, 60 min; read-out: LRRK2 WT IC50. The essentials:
(§1)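 Recombinant human wild-type or G2019S LRRK2 phosphorylated fluorescein-labelled LRRKtide (ERM-based) with ATP and serially diluted compound for 60 min at room temperature.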
On the technique in general: TR-FRET usually uses a lanthanide donor and a delayed reading to cut background.

The target in assay [2] is Recombinant G2019S-LRRK2 protein (Homo sapiens (Human), UniProt Q5S007, G2019S). In words: LRRK2 kinase activity, LanthaScreen TR-FRET assay (G2019S). The format is biochemical. The settings on record: LRRKtide 400 nM, 25 μM ATP, 60 min. Summed up: as §1

As usually defined, the IC50 is the midpoint of a concentration-inhibition curve.

Sequence of Recombinant G2019S-LRRK2 protein (Q5S007 whole entry G2019S): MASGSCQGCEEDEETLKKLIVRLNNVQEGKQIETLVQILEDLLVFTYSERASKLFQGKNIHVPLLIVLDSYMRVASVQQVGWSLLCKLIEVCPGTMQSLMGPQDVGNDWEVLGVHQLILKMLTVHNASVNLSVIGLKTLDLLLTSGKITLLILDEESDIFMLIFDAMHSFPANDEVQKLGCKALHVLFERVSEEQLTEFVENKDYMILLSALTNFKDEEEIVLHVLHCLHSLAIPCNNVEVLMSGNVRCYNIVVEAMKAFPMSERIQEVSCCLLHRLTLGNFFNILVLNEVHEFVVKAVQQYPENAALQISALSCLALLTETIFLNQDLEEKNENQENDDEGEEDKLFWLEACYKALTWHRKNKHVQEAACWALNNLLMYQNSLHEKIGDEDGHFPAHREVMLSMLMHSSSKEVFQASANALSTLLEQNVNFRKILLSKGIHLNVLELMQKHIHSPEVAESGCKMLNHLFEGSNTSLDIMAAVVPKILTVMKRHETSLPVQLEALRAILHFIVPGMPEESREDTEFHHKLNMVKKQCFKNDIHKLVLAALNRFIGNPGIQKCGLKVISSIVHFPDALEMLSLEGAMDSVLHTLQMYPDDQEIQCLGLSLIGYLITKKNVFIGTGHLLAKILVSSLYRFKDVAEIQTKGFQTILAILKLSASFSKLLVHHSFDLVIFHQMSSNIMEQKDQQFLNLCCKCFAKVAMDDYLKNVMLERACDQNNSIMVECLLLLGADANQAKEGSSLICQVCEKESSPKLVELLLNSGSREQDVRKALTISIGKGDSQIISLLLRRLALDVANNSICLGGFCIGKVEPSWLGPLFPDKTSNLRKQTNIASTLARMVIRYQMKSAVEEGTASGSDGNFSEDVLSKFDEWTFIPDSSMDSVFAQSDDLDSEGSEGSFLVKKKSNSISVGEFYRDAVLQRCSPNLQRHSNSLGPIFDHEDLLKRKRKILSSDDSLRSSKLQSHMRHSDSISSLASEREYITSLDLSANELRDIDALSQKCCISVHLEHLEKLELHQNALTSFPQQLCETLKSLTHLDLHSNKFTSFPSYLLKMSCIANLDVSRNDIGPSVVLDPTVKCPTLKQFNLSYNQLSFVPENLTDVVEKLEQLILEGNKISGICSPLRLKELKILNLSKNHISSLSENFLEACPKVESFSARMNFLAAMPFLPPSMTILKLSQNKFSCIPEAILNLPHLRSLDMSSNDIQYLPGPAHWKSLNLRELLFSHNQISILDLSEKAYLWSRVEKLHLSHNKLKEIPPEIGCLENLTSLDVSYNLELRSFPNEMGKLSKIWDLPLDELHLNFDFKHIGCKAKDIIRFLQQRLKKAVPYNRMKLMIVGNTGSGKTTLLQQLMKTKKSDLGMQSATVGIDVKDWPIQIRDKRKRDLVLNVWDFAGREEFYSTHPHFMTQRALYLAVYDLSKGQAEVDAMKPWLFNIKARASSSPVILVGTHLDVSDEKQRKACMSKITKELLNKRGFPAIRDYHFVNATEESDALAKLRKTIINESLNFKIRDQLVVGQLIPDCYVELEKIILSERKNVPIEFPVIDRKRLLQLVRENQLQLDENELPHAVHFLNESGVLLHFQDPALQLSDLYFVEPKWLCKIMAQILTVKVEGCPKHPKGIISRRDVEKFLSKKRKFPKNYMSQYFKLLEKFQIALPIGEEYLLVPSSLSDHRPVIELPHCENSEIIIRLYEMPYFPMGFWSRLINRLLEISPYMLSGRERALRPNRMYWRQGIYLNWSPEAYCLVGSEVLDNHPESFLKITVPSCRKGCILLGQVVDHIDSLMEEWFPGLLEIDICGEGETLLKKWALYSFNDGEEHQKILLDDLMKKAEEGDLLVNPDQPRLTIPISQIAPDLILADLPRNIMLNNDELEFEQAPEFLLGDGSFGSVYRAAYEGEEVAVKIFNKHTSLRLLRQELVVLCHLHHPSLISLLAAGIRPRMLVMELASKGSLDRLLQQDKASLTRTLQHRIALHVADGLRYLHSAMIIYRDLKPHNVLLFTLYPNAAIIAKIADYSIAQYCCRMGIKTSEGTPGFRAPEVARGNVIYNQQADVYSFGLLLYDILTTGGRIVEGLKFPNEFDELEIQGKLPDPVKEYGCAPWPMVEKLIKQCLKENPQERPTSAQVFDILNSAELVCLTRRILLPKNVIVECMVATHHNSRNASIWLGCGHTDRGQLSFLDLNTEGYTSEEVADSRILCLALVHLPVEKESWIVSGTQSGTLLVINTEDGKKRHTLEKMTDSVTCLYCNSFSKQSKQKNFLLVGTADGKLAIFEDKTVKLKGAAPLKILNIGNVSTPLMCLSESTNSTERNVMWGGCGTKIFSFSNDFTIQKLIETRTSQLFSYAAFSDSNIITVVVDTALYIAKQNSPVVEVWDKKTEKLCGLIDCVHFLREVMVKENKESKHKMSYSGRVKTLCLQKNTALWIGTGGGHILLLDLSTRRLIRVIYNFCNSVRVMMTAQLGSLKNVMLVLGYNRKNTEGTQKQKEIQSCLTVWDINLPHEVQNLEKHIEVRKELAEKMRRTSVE
Sequence of Recombinant wild type LRRK2 protein (Q5S007 whole entry): as the sequence (Q5S007 whole entry G2019S) above, with S2019G counted along it

On to `Cc1c(C#N)nn(C)c1C(=O)Nc1ccc2[nH]nc(-c3cnn(C(F)F)c3)c2c1` [Example 195, 3-Cyano-N-(3-(1-(difluoromethyl)-1H-pyrazol-4-yl)-1H-indazol-5-yl)-1,4-dimethyl-1H-pyrazole-5-carboxamide], for which the concentration for half-maximal inhibition (IC50) in assay [1] and in assay [2] was less than 100 nM in each case.

For the compound `Cc1cc(C#N)cnc1C(=O)Nc1ccc2[nH]nc(-c3cccc(C4CC4)c3)c2c1` [Example 62, 5-cyano-N-(3-(3-cyclopropylphenyl)-1H-indazol-5-yl)-3-methylpicolinamide], the 50% inhibitory concentration (IC50) in assay [1] is 100 to 1000 nM; in assay [2], less than 100 nM.

Take `Cc1c(C(=O)Nc2ccc3[nH]nc(C(F)(F)F)c3c2)nc(Cl)c(C#N)c1C` [Example 293, 6-Chloro-5-cyano-3,4-dimethyl-N-(3-(trifluoromethyl)-1H-indazol-5-yl)picolinamide]: the half-inhibitory concentration (IC50) in assay [1] and in assay [2] was less than 100 nM each time.

With `Cc1cc(C#N)cnc1C(=O)Nc1ccc2[nH]nc(-c3ccc(C(F)(F)F)cc3)c2c1` [Example 35, 5-Cyano-3-methyl-N-(3-(4-(trifluoromethyl)phenyl)-1H-indazol-5-yl)picolinamide], the half-maximal inhibitory concentration (IC50) in assay [1] was greater than 10000 nM; in assay [2] it was 100 to 1000 nM.

In the case of `Cc1nc(C(=O)Nc2ccc3[nH]nc(-c4cnoc4)c3c2)c(C)c(C)c1C#N` [Example 210, 5-Cyano-N-(3-(isoxazol-4-yl)-1H-indazol-5-yl)-3,4,6-trimethylpicolinamide], the IC50 in assay [1] and in assay [2] was less than 100 nM in each case.

As for “4-Cyano-N-(3-(1-(difluoromethyl)-1H-pyrazol-3-yl)-1H-indazol-5-yl)-2-fluoro-6-methylbenzamide [Example 165]”, the IC50 in assay [1] and in assay [2] was less than 100 nM each time.

Regarding `N#Cc1cnc(C(=O)Nc2ccc3[nH]nc(-c4cnco4)c3c2)c2c1CCC2` [Example 206, 4-Cyano-N-(3-(oxazol-5-yl)-1H-indazol-5-yl)-6,7-dihydro-5H-cyclopenta[c]pyridine-1-carboxamide], the IC50 was 1000 to 10000 nM in assay [1] and less than 100 nM in assay [2].

Take `Cc1cc(C#N)cnc1C(=O)Nc1ccc2[nH]nc(-c3cnoc3)c2c1` [Example 146, 5-Cyano-N-(3-(isoxazol-4-yl)-1H-indazol-5-yl)-3-methylpicolinamide]: the figures for the IC50 in assay [1] and in assay [2] were 100 to 1000 nM and less than 100 nM, respectively.

Take `Cc1cc(C#N)cnc1C(=O)Nc1ccc2[nH]nc(-c3ccno3)c2c1` [Example 101, 5-Cyano-N-(3-(isoxazol-5-yl)-1H-indazol-5-yl)-3-methylpicolinamide]: the IC50 in assay [1] is 100 to 1000 nM; in assay [2] it was less than 100 nM.

Regarding `Cc1c(C#N)cnc(C(=O)Nc2ccc3[nH]nc(/C=C/C(F)(F)F)c3c2)c1C` [Example 266, (E)-5-Cyano-3,4-dimethyl-N-(3-(3,3,3-trifluoroprop-1-en-1-yl)-1H-indazol-5-yl)picolinamide], the half-maximal inhibitory concentration (IC50) in assay [1] is 100 to 1000 nM; in assay [2] it was less than 100 nM.

Take `Cc1c(C#N)cnc(C(=O)Nc2ccc3[nH]nc(-c4cnn(C(F)(F)F)c4)c3c2)c1C` [Example 169, 5-Cyano-3,4-dimethyl-N-(3-(1-(trifluoromethyl)-1H-pyrazol-4-yl)-1H-indazol-5-yl)picolinamide]: the IC50 in assay [1] and in assay [2] was less than 100 nM each time.

In the case of `Cc1c(C#N)cnc(C(=O)Nc2ccc3[nH]nc(C)c3c2)c1Cl` [Example 326, 3-Chloro-5-cyano-4-methyl-N-(3-methyl-1H-indazol-5-yl)picolinamide], the IC50 in assay [1] was 100 to 1000 nM; in assay [2], less than 100 nM.

As to `N#Cc1cc(C(=O)Nc2ccc3[nH]nc(-c4ccoc4)c3c2)no1` [Example 82, 5-Cyano-N-(3-(furan-3-yl)-1H-indazol-5-yl)isoxazole-3-carboxamide], the IC50 in assay [1] and in assay [2] was less than 100 nM in each case.

For `Cc1nc(C(=O)Nc2ccc3[nH]nc(C4CC4)c3c2)c(Cl)c(C)c1C#N` [Example 283, 3-chloro-5-cyano-N-(3-cyclopropyl-1H-indazol-5-yl)-4,6-dimethylpicolinamide], the IC50 in assay [1] was 100 to 1000 nM; in assay [2] it was less than 100 nM.

Take `CCc1n[nH]c2ccc(NC(=O)c3nc(Cl)c(C#N)c(C)c3C)cc12` [Example 271, 6-Chloro-5-cyano-N-(3-ethyl-1H-indazol-5-yl)-3,4-dimethylpicolinamide]: the IC50 in assay [1] and in assay [2] was less than 100 nM throughout.

With `Cc1c(C#N)cnc(C(=O)Nc2ccc3[nH]nc(C(F)F)c3c2)c1C` [Example 292, 5-Cyano-N-(3-(difluoromethyl)-1H-indazol-5-yl)-3,4-dimethylpicolinamide], the IC50 was in the range of 1000 to 10000 nM in assay [1] and 100 to 1000 nM in assay [2].

Consider `Cc1c(C#N)cnc(C(=O)Nc2ccc3[nH]nc(Cl)c3c2)c1C` [Example 301, N-(3-Chloro-1H-indazol-5-yl)-5-cyano-3,4-dimethylpicolinamide], for which the IC50 in assay [1] is 1000 to 10000 nM; in assay [2], less than 100 nM.

For the compound `Cc1ccc(C#N)c(F)c1C(=O)Nc1ccc2[nH]nc(-c3cnoc3)c2c1` [Example 236, 3-Cyano-2-fluoro-N-(3-(isoxazol-4-yl)-1H-indazol-5-yl)-6-methylbenzamide], the concentration for half-maximal inhibition (IC50) in assay [1] and in assay [2] was less than 100 nM each time.

For the compound `N#Cc1cnc(C(=O)Nc2ccc3[nH]nc(-c4ccoc4)c3c2)c(Cl)c1` [Example 95, 3-chloro-5-cyano-N-(3-(furan-3-yl)-1H-indazol-5-yl)picolinamide], the IC50 in assay [1] and in assay [2] was less than 100 nM throughout.

With `Cc1c(C(=O)Nc2ccc3[nH]nc(S(C)(=O)=O)c3c2)nc(Cl)c(C#N)c1C` [Example 296, 6-Chloro-5-cyano-3,4-dimethyl-N-(3-(methylsulfonyl)-1H-indazol-5-yl)picolinamide], the IC50 was 100 to 1000 nM in assay [1] and less than 100 nM in assay [2].

Consider `CC(C)c1c(C#N)cccc1C(=O)Nc1ccc2[nH]nc(-c3cnco3)c2c1` [Example 225, 3-Cyano-2-isopropyl-N-(3-(oxazol-5-yl)-1H-indazol-5-yl)benzamide], for which the IC50 in assay [1] and in assay [2] was less than 100 nM throughout.

As for `N#Cc1ccc(C(=O)Nc2ccc3[nH]nc(-c4ccoc4)c3c2)nc1` [Example 16, 5-Cyano-N-(3-(furan-3-yl)-1H-indazol-5-yl)picolinamide], the IC50 in assay [1] was 100 to 1000 nM; in assay [2], less than 100 nM.

For the compound `COc1cc(C(=O)Nc2ccc3[nH]nc(-c4cnco4)c3c2)ncc1C#N` [Example 249, 5-Cyano-4-methoxy-N-(3-(oxazol-5-yl)-1H-indazol-5-yl)picolinamide], the half-inhibitory concentration (IC50) is 100 to 1000 nM in assay [1] and less than 100 nM in assay [2].

`Cc1n[nH]c2ccc(NC(=O)c3ncc(C#N)cc3C(C)C)cc12` [Example 294, 5-Cyano-3-isopropyl-N-(3-methyl-1H-indazol-5-yl)picolinamide]: the IC50 lay in the range of 1000 to 10000 nM in assay [1] and 100 to 1000 nM in assay [2].

`Cc1nc(C(=O)Nc2ccc3[nH]nc(-c4cncs4)c3c2)c(C)c(C)c1C#N` [Example 222, 5-Cyano-3,4,6-trimethyl-N-(3-(thiazol-5-yl)-1H-indazol-5-yl)picolinamide]: the IC50 in assay [1] and in assay [2] was less than 100 nM throughout.

As for `Cc1ncc(-c2n[nH]c3ccc(NC(=O)c4ncc(C#N)c(C)c4C)cc23)o1` [Example 174, 5-Cyano-3,4-dimethyl-N-(3-(2-methyloxazol-5-yl)-1H-indazol-5-yl)picolinamide], the IC50 in assay [1] and in assay [2] was less than 100 nM throughout.

As for `CCc1cc(C#N)cnc1C(=O)Nc1ccc2[nH]nc(-c3ccoc3)c2c1` [Example 83, 5-Cyano-3-ethyl-N-(3-(furan-3-yl)-1H-indazol-5-yl)picolinamide], the half-inhibitory concentration (IC50) is 100 to 1000 nM in assay [1] and less than 100 nM in assay [2].

On to `Cc1cc(C#N)cnc1C(=O)Nc1ccc2[nH]nc(-c3cccnc3)c2c1` [Example 50, 5-Cyano-3-methyl-N-(3-(pyridin-3-yl)-1H-indazol-5-yl)picolinamide], for which the values for the IC50 in assay [1] and in assay [2] were 100 to 1000 nM and less than 100 nM, respectively.

Regarding `Cc1cc(C#N)cnc1C(=O)Nc1ccc2[nH]nc(-c3cnoc3C)c2c1` [Example 36, 5-Cyano-3-methyl-N-(3-(5-methylisoxazol-4-yl)-1H-indazol-5-yl)picolinamide], the half-maximal inhibitory concentration (IC50) was greater than 10000 nM in assay [1] and less than 100 nM in assay [2].

In the case of `Cc1c(C#N)cnc(C(=O)Nc2ccc3[nH]nc(-c4ccn(C(F)F)n4)c3c2)c1C` [Example 204, 5-Cyano-N-(3-(1-(difluoromethyl)-1H-pyrazol-3-yl)-1H-indazol-5-yl)-3,4-dimethylpicolinamide], the IC50 was 100 to 1000 nM in assay [1] and less than 100 nM in assay [2].

Take `N#Cc1cnc(C(=O)Nc2ccc3[nH]nc(-c4ccoc4)c3c2)cc1O` [Example 39, 5-Cyano-N-(3-(furan-3-yl)-1H-indazol-5-yl)-4-hydroxypicolinamide]: the IC50 in assay [1] and in assay [2] was 1000 to 10000 nM throughout.

As to `C=Cc1cc(C#N)cnc1C(=O)Nc1ccc2[nH]nc(-c3ccoc3)c2c1` [Example 84, 5-Cyano-N-(3-(furan-3-yl)-1H-indazol-5-yl)-3-vinylpicolinamide], the half-inhibitory concentration (IC50) in assay [1] is 100 to 1000 nM; in assay [2] it was less than 100 nM.

For `N#Cc1ccc(C(=O)Nc2ccc3[nH]nc(-c4ccoc4)c3c2)c(Cl)c1` [Example 5, 2-Chloro-4-cyano-N-(3-(furan-3-yl)-1H-indazol-5-yl)benzamide], the IC50 in assay [1] and in assay [2] was less than 100 nM throughout.

`COc1cc(-c2n[nH]c3ccc(NC(=O)c4ncc(C#N)c(C)c4C)cc23)ccn1` [Example 159, 5-Cyano-N-(3-(2-methoxypyridin-4-yl)-1H-indazol-5-yl)-3,4-dimethylpicolinamide]: the concentration for half-maximal inhibition (IC50) in assay [1] and in assay [2] was less than 100 nM throughout.

`Cc1cc(-c2n[nH]c3ccc(NC(=O)c4ncc(C#N)cc4C)cc23)cnn1` [Example 273, 5-Cyano-3-methyl-N-(3-(6-methylpyridazin-4-yl)-1H-indazol-5-yl)picolinamide]: the IC50 in assay [1] was 100 to 1000 nM; in assay [2], less than 100 nM.
